Results on 7 compounds are retold here after ChEMBL document CHEMBL3822442, “Synthesis and Pharmacological Characterization of Novel Glucagon-like Peptide-2 (GLP-2) Analogues with Low Systemic Clearance” (J Med Chem, 2016).

Assay [1] has as its target Glucagon-like peptide 1 receptor (Homo sapiens, UniProt P43220). Kind of assay: Agonist activity at human GLP1R expressed in HEK293 cells after 5 hrs by luciferase reporter gene assay. The format is cell-based. For orientation: Reporter assays use an easily measured gene product as a stand-in for the process of interest.
Assay [2] addresses T1, Glucagon-like peptide 2 receptor (Homo sapiens, UniProt O95838).
T1 sequence (O95838 whole entry): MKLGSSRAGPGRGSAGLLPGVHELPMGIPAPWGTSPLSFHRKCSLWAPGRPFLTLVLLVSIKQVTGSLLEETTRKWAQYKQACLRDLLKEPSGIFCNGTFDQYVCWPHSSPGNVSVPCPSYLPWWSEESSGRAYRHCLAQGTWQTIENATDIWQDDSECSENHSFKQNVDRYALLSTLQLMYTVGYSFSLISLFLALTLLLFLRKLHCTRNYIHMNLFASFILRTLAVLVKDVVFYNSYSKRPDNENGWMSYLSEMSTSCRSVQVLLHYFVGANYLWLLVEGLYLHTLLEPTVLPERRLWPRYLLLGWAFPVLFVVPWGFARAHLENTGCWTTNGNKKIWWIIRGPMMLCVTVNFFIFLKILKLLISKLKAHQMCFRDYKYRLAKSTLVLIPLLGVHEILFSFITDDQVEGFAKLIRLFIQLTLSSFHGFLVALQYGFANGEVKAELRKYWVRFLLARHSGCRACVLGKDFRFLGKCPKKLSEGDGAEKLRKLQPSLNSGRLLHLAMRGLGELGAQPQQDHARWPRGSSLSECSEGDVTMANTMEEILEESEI
Kind of assay: Agonist activity at human GLP2R expressed in HEK293 cells after 5 hrs by luciferase reporter gene assay. The format is cell-based.

Chain of Glucagon-like peptide 1 receptor (P43220 whole entry): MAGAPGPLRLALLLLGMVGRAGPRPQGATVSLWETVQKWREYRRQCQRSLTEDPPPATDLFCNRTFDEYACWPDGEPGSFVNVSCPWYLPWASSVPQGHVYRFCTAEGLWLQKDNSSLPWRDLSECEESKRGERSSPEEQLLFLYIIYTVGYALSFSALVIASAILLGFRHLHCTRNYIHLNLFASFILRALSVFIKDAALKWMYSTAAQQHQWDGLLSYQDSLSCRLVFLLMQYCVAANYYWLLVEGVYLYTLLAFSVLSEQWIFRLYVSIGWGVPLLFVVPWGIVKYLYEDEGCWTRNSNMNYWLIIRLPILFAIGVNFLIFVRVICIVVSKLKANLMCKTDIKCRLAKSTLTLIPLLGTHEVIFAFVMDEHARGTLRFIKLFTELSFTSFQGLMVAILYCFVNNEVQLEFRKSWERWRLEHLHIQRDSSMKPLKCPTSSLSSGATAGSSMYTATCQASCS

As to `CCCC[C@H](NC(=O)[C@H](CCC(=O)O)NC(=O)[C@H](CC(=O)O)NC(=O)[C@H](CO)NC(=O)[C@H](Cc1ccccc1)NC(=O)[C@H](CO)NC(=O)CNC(=O)[C@H](CC(=O)O)NC(=O)CNC(=O)[C@@H](N)Cc1cnc[nH]1)C(=O)N[C@H](Cc1ccccc1)C(=O)N[C@H](C(=O)N[C@H](C(=O)N[C@@H](CC(C)C)C(=O)N[C@@H](CC(=O)O)C(=O)N[C@@H](CC(C)C)C(=O)N[C@@H](CC(C)C)C(=O)N[C@@H](C)C(=O)N[C@@H](C)C(=O)N[C@@H](CCCNC(=N)N)C(=O)N[C@@H](CC(=O)O)C(=O)N[C@@H](Cc1ccccc1)C(=O)N[C@H](C(=O)N[C@@H](CC(N)=O)C(=O)N[C@@H](Cc1c[nH]c2ccccc12)C(=O)N[C@@H](CC(C)C)C(=O)N[C@H](C(=O)N[C@@H](CCC(N)=O)C(=O)N[C@H](C(=O)N[C@@H](CCCCN)C(=O)N[C@H](C(=O)N[C@H](C(=O)N[C@@H](CC(=O)O)C(=O)NCC)[C@@H](C)O)[C@@H](C)CC)[C@@H](C)O)[C@@H](C)CC)[C@@H](C)CC)[C@@H](C)CC)[C@@H](C)O`, the EC50 is over 1000 nM in assay [1] and 0.05 nM in assay [2].
The matching figures for `CCCC[C@H](NC(=O)[C@H](CCC(=O)O)NC(=O)[C@H](CC(=O)O)NC(=O)[C@H](CO)NC(=O)[C@H](Cc1ccccc1)NC(=O)[C@H](CO)NC(=O)CNC(=O)[C@H](CC(=O)O)NC(=O)CNC(=O)[C@@H](N)Cc1cnc[nH]1)C(=O)N[C@@H](CC(N)=O)C(=O)N[C@H](C(=O)N[C@H](C(=O)N[C@@H](CC(C)C)C(=O)N[C@@H](CC(=O)O)C(=O)N[C@@H](Cc1ccc(-c2ccccc2)cc1)C(=O)N[C@@H](CC(C)C)C(=O)N[C@@H](C)C(=O)N[C@@H](C)C(=O)N[C@@H](CCCNC(=N)N)C(=O)N[C@@H](CC(=O)O)C(=O)N[C@@H](Cc1ccccc1)C(=O)N[C@H](C(=O)N[C@@H](CC(N)=O)C(=O)N[C@@H](Cc1c[nH]c2ccccc12)C(=O)N[C@@H](CC(C)C)C(=O)N[C@H](C(=O)N[C@@H](CCC(N)=O)C(=O)N[C@H](C(=O)N[C@@H](CCCCN)C(N)=O)[C@@H](C)O)[C@@H](C)CC)[C@@H](C)CC)[C@@H](C)CC)[C@@H](C)O`: over 1000 nM and 0.35 nM.
On the same counts, the results for `CCCC[C@H](NC(=O)[C@H](CCC(=O)O)NC(=O)[C@H](CC(=O)O)NC(=O)[C@H](CO)NC(=O)[C@H](Cc1ccccc1)NC(=O)[C@H](CO)NC(=O)CNC(=O)[C@H](CC(=O)O)NC(=O)CNC(=O)[C@@H](N)Cc1c[nH]cn1)C(=O)N[C@@H](CC(N)=O)C(=O)N[C@H](C(=O)N[C@H](C(=O)N[C@@H](CC(C)C)C(=O)N[C@@H](CC(=O)O)C(=O)N[C@@H](Cc1ccc2ccccc2c1)C(=O)N[C@@H](CC(C)C)C(=O)N[C@@H](C)C(=O)N[C@@H](C)C(=O)N[C@@H](CCCNC(=N)N)C(=O)N[C@@H](CC(=O)O)C(=O)N[C@@H](Cc1ccccc1)C(=O)N[C@H](C(=O)N[C@@H](CC(N)=O)C(=O)N[C@@H](Cc1c[nH]c2ccccc12)C(=O)N[C@@H](CC(C)C)C(=O)N[C@H](C(=O)N[C@@H](CCC(N)=O)C(=O)N[C@H](C(=O)N[C@@H](CCCCN)C(N)=O)[C@@H](C)O)[C@@H](C)CC)[C@@H](C)CC)[C@@H](C)CC)[C@@H](C)O` are over 1000 nM and 0.13 nM.
The matching figures for `CCCC[C@H](NC(=O)[C@H](CCC(=O)O)NC(=O)[C@H](CC(=O)O)NC(=O)[C@H](CO)NC(=O)[C@H](Cc1ccccc1)NC(=O)[C@H](CO)NC(=O)CNC(=O)[C@H](CC(=O)O)NC(=O)CNC(=O)[C@@H](N)Cc1cnc[nH]1)C(=O)N[C@H](Cc1ccccc1)C(=O)N[C@H](C(=O)N[C@H](C(=O)N[C@@H](CC(C)C)C(=O)N[C@@H](CC(=O)O)C(=O)N[C@@H](CC(C)C)C(=O)N[C@@H](CC(C)C)C(=O)N[C@@H](C)C(=O)N[C@@H](C)C(=O)N[C@@H](CCCNC(=N)N)C(=O)N[C@@H](CC(=O)O)C(=O)N[C@@H](Cc1ccccc1)C(=O)N[C@H](C(=O)N[C@@H](CC(N)=O)C(=O)N[C@@H](Cc1c[nH]c2ccccc12)C(=O)N[C@@H](CC(C)C)C(=O)N[C@H](C(=O)N[C@@H](CCC(N)=O)C(=O)N[C@H](C(=O)N[C@@H](CCCCN)C(=O)N[C@H](C(=O)N[C@H](C(=O)N[C@@H](CC(=O)O)C(=O)NCCOCCOCCOCCOCCC(N)=O)[C@@H](C)O)[C@@H](C)CC)[C@@H](C)O)[C@@H](C)CC)[C@@H](C)CC)[C@@H](C)CC)[C@@H](C)O`: over 1000 nM and 0.03 nM.
`CCCC[C@H](NC(=O)[C@H](CCC(=O)O)NC(=O)[C@H](CC(=O)O)NC(=O)[C@H](CO)NC(=O)[C@H](Cc1ccccc1)NC(=O)[C@H](CO)NC(=O)CNC(=O)[C@H](CC(=O)O)NC(=O)CNC(=O)[C@@H](N)Cc1cnc[nH]1)C(=O)N[C@H](CC(C)C)C(=O)N[C@H](C(=O)N[C@H](C(=O)N[C@@H](CC(C)C)C(=O)N[C@@H](CC(=O)O)C(=O)N[C@@H](CC(N)=O)C(=O)N[C@@H](CC(C)C)C(=O)N[C@@H](C)C(=O)N[C@@H](C)C(=O)N[C@@H](CCCNC(=N)N)C(=O)N[C@@H](CC(=O)O)C(=O)N[C@@H](Cc1ccccc1)C(=O)N[C@H](C(=O)N[C@@H](CC(N)=O)C(=O)N[C@@H](Cc1c[nH]c2ccccc12)C(=O)N[C@@H](CC(C)C)C(=O)N[C@H](C(=O)N[C@@H](CCC(N)=O)C(=O)N[C@H](C(=O)N[C@@H](CCCCN)C(N)=O)[C@@H](C)O)[C@@H](C)CC)[C@@H](C)CC)[C@@H](C)CC)[C@@H](C)O`: the EC50 was over 1000 nM in assay [1] and 0.31 nM in assay [2].
As to `CCCC[C@H](NC(=O)[C@H](CCC(=O)O)NC(=O)[C@H](CC(=O)O)NC(=O)[C@H](CO)NC(=O)[C@H](Cc1ccccc1)NC(=O)[C@H](CO)NC(=O)CNC(=O)[C@H](CC(=O)O)NC(=O)CNC(=O)[C@@H](N)Cc1cnc[nH]1)C(=O)N[C@H](Cc1ccc(Cl)cc1)C(=O)N[C@H](C(=O)N[C@H](C(=O)N[C@@H](CC(C)C)C(=O)N[C@@H](CC(=O)O)C(=O)N[C@@H](CC(N)=O)C(=O)N[C@@H](CC(C)C)C(=O)N[C@@H](C)C(=O)N[C@@H](C)C(=O)N[C@@H](CCCNC(=N)N)C(=O)N[C@@H](CC(=O)O)C(=O)N[C@@H](Cc1ccccc1)C(=O)N[C@H](C(=O)N[C@@H](CC(N)=O)C(=O)N[C@@H](Cc1c[nH]c2ccccc12)C(=O)N[C@@H](CC(C)C)C(=O)N[C@H](C(=O)N[C@@H](CCC(N)=O)C(=O)N[C@H](C(=O)N[C@@H](CCCCN)C(N)=O)[C@@H](C)O)[C@@H](C)CC)[C@@H](C)CC)[C@@H](C)CC)[C@@H](C)O`, the 50% effective concentration (EC50) in assay [1] was found to be 60 nM; in assay [2] it was 0.09 nM.
Regarding `CCCC[C@H](NC(=O)[C@H](CCC(=O)O)NC(=O)[C@H](CC(=O)O)NC(=O)[C@H](CO)NC(=O)[C@H](Cc1ccccc1)NC(=O)[C@H](CO)NC(=O)CNC(=O)[C@H](CC(=O)O)NC(=O)CNC(=O)[C@@H](N)Cc1cnc[nH]1)C(=O)N[C@@H](CC(N)=O)C(=O)N[C@H](C(=O)N[C@H](C(=O)N[C@@H](CC(C)C)C(=O)N[C@@H](CC(=O)O)C(=O)N[C@@H](Cc1cccc2ccccc12)C(=O)N[C@@H](CC(C)C)C(=O)N[C@@H](C)C(=O)N[C@@H](C)C(=O)N[C@@H](CCCNC(=N)N)C(=O)N[C@@H](CC(=O)O)C(=O)N[C@@H](Cc1ccccc1)C(=O)N[C@H](C(=O)N[C@@H](CC(N)=O)C(=O)N[C@@H](Cc1c[nH]c2ccccc12)C(=O)N[C@@H](CC(C)C)C(=O)N[C@H](C(=O)N[C@@H](CCC(N)=O)C(=O)N[C@H](C(=O)N[C@@H](CCCCN)C(N)=O)[C@@H](C)O)[C@@H](C)CC)[C@@H](C)CC)[C@@H](C)CC)[C@@H](C)O`, the values for the EC50 in assay [1] and in assay [2] were over 1000 nM and 0.19 nM, respectively.

As usually defined, the EC50 is the concentration that produces a half-maximal response. A higher EC50 goes with a less potent agent.
